Assay results published in US7012061B1 (New York University, priority 1998, dated 2006).
Where “and” joins values, the source holds several entries; their conditions need not be identical. Equal entries are not always repeated. Where two headings read alike, the source gives them in different places.

B1: IL-12: Murine rIL-12 provided by Genetics Institute (protein, UniProt P43431 23-215; P43432 23-335, looked up)
Interleukin-12 subunit alpha: RVIPVSGPARCLSQSRNLLKTTDDMVKTAREKLKHYSCTAEDIDHEDITRDQTSTLKTCLPLELHKNESCLATRETSSTTRGSCLPPQKTSLMMTLCLGSIYEDLKMYQTEFQAINAALQNHNHQQIILDKGMLVAIDELMQSLNHNGETLRQKPPVGEADPYRVKMKLCILLHAFSTRVVTINRVMGYLSSA
Interleukin-12 subunit beta: MWELEKDVYVVEVDWTPDAPGETVNLTCDTPEEDDITWTSDQRHGVIGSGKTLTITVKEFLDAGQYTCHKGGETLSHSHLLLHKKENGIWSTEILKNFKNKTFLKCEAPNYSGRFTCSWLVQRNMDLKFNIKSSSSSPDSRAVTCGMASLSAEKVTLDQRDYEKYSVSCQEDVTCPTAEETLPIELALEARQQNKYENYSTSFFIRDIIKPDPPKNLQMKPLKNSQVEVSWEYPDSWSTPHSYFSLKFFVRIQRKKEKMKETEEGCNQKGAFLVEKTSTEVQCKGGNVCVQAQDRYYNSSCSKWACVPCRVRS
B2: IFN-γ: Recombinant mouse IFN-γ purchased from Genzyme (protein, UniProt P01580 23-155, looked up)
Interferon gamma: HGTVIESLESLNNYFNSSGIDVEEKSLFLDIWRNWQKDGDMKILQSQIISFYLRLFEVLKDNQAISNNISVIESHLITTFFSNSKAKKDAFMSIAKFEVNNPQVQRQAFNELIRVVHQLLPESSLRKRKRSRC

Columns and labels:
VSV [1] = assay type: in vivo, mice
VSV [2] = assay type: cell-based, Vesicular stomatitis virus; details: RAW, inhibitors, moi = 1, 8 h pi
HSV-1 = assay type: cell-based, Herpes Simplex virus-1
Sindbis AR339 virus = assay type: cell-based
VSV [3] = assay type: cell-based, Vesicular stomatitis virus; details: for VSV in supernatant: NB41A3, 8 h pi; for Effect on IFN-γ-induced inhibition of VSV replication: NB41A3 cells
Influenza virus A/WSN/33 = assay type: cell-based
type I NOS = type I NOS (Homo sapiens, UniProt P29475); details: Moore et al, 1993; cited from earlier work
VSV [4] = assay type: cell-based, Vesicular stomatitis virus; details: C6 Glia, moi = 1, 8 h pi
aortic endothelial cells = details: Clark et al, 1988; cited from earlier work
MHC-II = system: MHC-II; set-up: species or system mice; key: − = no visual staining; + = minimal staining; ++ = moderate staining; +++ = strong staining; details: mouse, in vivo
MHC-I = system: MHC-I; set-up: species or system mice; key: − = no visual staining; + = minimal staining; ++ = moderate staining; +++ = strong staining; details: mouse, in vivo
VSV protein = assay type: cell-based, Vesicular stomatitis virus
IL-12 = system: IL-12; set-up: species or system mice; key: − = no visual staining; + = minimal staining; ++ = moderate staining; +++ = strong staining; details: mouse, in vivo
blood brain barrier [5] = system: blood brain barrier; set-up: species or system mice; details: mouse, in vivo
VSV mRNA (N gene) = assay type: cell-based, Vesicular stomatitis virus
[6] = set-up: species or system mice; details: mouse, in vivo
IFN-R = system: IFN-R; set-up: species or system mice; key: − = no visual staining; + = minimal staining; ++ = moderate staining; +++ = strong staining; details: mouse, in vivo
VSV [7] = system: VSV; set-up: species or system mice; key: − = no visual staining; + = minimal staining; ++ = moderate staining; +++ = strong staining; details: mouse, in vivo
blood brain barrier [8] = details: mouse, in vivo
VSV [9] = system: VSV; set-up: species or system mice; details: mouse, in vivo, ip
[10] = system: NOS activity in RAW cells; assay: NO2 release into culture medium (Griess reagent), RAW cells; assay type: cell-based, murine; details: RAW macrophage line, incubation with 5 ng rIFNγ
Protocol: (§1) FIGS. 2A–2C show the kinetics of the IFN-γ augmented NOS activity in NB41A3 neuroblastoma, C6 rat glioma and RAW cells. Aliquots of supernatant were removed from triplicate wells of 2×10^5 NB41A3 (FIG. 2A), RAW (FIG. 2B) or C6 (FIG. 2C) cells, cultured with medium or with 5 ng IFN-γ for up to 72 hours. The medium was assayed for the presence of NO2 using the Griess reagent, and expressed as nM NO2 ±S.D. present.
(§2) The concentration of NO in culture supernatants was determined by assaying its stable end-product, NO2 (Bredt et al, 1989). Briefly, equal volumes of experimental sample and Griess reagent (1% sulfanilamidide, 0.1% N-1-naphthylethylene-diamine, 5H3PO4) (Sigma) were incubated at room temperature for ten minutes. The reaction produces a pink color, which was quantitated at 540 nm against standards in the same buffer, using an automated plate reader (Bio-Tek, Inc., model EL309). The data is expressed as mM.

[11] = system: NOS activity in C6 rat glioma cells; assay: NO2 release into culture medium (Griess reagent), C6 cells; assay type: cell-based; details: astrocytes (C6), co-culture with IFN-γ
Protocol: as §1, §2

[12] = system: NOS activity in NB41A3 neuroblastoma cells; assay: NO2 release into culture medium (Griess reagent), NB41A3 cells; assay type: cell-based
Protocol: as §1, §2

[13] = 5 μg IFN-γ for 72 hours prior to infection, inhibitors 400 mM, 8 hour infection, moi = 1
[14] = Media (no IFN-γ), inhibitors 400 mM, 8 hour infection, moi = 1
[15] = IFN-γ 5 ng for 72 hours, inhibitors 400 mM, moi = 1
[16] = Medium, inhibitors 400 mM, moi = 1
[17] = NMDA 500 mM for two minutes, inhibitors 400 mM, moi = 1
[18] = IFN-γ 5 ng for 72 hours, inhibitors 400 mM

Sequence of type I NOS (P29475 whole entry): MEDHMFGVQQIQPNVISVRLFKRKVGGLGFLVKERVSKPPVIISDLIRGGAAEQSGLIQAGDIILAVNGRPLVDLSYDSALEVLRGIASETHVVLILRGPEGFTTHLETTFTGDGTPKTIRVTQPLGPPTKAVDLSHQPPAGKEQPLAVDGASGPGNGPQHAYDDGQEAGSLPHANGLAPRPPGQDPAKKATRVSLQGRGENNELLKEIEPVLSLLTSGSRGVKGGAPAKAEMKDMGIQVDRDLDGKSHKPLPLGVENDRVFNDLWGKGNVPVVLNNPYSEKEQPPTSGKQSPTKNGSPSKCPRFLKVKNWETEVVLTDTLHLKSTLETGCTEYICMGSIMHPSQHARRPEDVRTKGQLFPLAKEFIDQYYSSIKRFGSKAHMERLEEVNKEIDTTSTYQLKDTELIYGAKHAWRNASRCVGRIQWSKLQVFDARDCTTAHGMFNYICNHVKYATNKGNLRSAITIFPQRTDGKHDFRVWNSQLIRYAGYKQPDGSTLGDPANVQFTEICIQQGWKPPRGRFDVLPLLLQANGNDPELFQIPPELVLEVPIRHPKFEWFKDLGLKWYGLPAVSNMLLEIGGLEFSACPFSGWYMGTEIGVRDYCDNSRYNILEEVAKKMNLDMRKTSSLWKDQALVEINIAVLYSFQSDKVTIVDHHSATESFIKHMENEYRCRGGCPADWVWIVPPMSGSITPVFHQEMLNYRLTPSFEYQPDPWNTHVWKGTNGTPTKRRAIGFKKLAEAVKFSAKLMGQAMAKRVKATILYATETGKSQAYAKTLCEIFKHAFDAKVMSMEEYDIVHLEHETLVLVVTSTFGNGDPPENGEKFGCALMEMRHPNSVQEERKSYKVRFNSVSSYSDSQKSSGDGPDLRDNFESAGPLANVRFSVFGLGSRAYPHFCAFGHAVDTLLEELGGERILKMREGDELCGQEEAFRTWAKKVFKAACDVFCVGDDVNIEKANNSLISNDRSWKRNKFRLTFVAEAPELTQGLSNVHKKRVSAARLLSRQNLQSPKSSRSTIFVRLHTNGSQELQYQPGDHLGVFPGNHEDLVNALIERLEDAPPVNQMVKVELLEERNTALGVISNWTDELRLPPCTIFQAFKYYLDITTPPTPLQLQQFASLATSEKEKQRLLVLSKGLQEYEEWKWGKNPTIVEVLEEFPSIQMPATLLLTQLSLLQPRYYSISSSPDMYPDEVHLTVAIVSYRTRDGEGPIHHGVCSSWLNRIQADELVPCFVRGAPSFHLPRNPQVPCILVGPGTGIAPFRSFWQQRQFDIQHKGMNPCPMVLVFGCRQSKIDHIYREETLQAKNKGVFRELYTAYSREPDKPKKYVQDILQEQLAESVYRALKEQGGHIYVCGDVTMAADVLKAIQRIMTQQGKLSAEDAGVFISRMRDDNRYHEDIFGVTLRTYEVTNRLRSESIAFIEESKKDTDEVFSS

Row | Molecule | VSV in supernatant (VSV [2]; IFN-γ 5 ng for 72 hours) | VSV in supernatant (VSV [2]; Medium) | HSV-1 infectious virus in supernatant (HSV-1) | Sindbis infectious virus in supernatant (Sindbis AR339 virus) | VSV infectious virus in supernatant (VSV [3]; [13]) | VSV infectious virus in supernatant (VSV [3]; [14]) | VSV in supernatant (VSV [3]; [15]) | VSV in supernatant (VSV [3]; [16]) | VSV in supernatant (VSV [3]; [17]) | Influenza infectious virus in supernatant (Influenza virus A/WSN/33; [13]) | Influenza infectious virus in supernatant (Influenza virus A/WSN/33; [14]) | VSV in supernatant (VSV [4]; [18]) | VSV in supernatant (VSV [4]; Medium, inhibitors 400 mM) | VSV in supernatant (VSV [4]) | further results
1 | O=[N+]([O-])c1cccc2cn[nH]c12 [7-NI, 7-nitroindazole] | 4.84 ± .15 log10 PFU | 5.87 ± .08 log10 PFU | 5.159 ± .194 Log10 PFU and 5.170 ± .264 Log10 PFU | 4.935 ± .056 Log10 PFU and 3.897 ± .089 Log10 PFU | 5.752 ± .331 Log10 PFU | 5.985 ± .428 Log10 PFU | 5.76 ± .10 log10 PFU | 5.76 ± .18 log10 PFU | 5.57 ± .15 log10 PFU | 3.897 ± .089 Log10 PFU | 5.560 ± .489 Log10 PFU | 4.54 ± .14 log10 PFU | 5.83 ± .14 log10 PFU | 4.59 ± .52 log10 PFU | Effect on IL-12-mediated enhanced clearance of VSV (VSV [1]; BALB/c male mice, 50 mg/kg with 200 ng IL-12, four days post infection): abrogated; Geometric mean titer (GMT) of virus in brain homogenates compared to indazole-treated mice (VSV [1]; BALB/c male mice, 50 mg/kg, four days post infection): ten-fold greater GMT; Effect on IFN-γ-induced inhibition of HSV-1 replication (HSV-1): abrogation; Effect on IFN-γ-induced inhibition of VSV replication (VSV [3]): abrogation; NOS isoform selectivity (type I NOS): selective inhibitor of type I, but not types II or III NOS
2 | NC1=NN(c2cccc(C(F)(F)F)c2)CC1 [BW 755c] |  |  |  |  |  |  |  |  |  |  |  |  |  |  | TNF-induced injury to aortic endothelial cells (aortic endothelial cells): reduced
3 | c1ccc2[nH]ncc2c1 [Indazole, indazole] | 4.49 ± .48 log10 PFU | 5.45 ± .21 log10 PFU | 5.140 ± .204 Log10 PFU and 3.175 ± .369 Log10 PFU | 5.053 ± .217 Log10 PFU and 3.752 ± .046 Log10 PFU | 3.678 ± .174 Log10 PFU | 5.460 ± .408 Log10 PFU | 4.23 ± .29 log10 PFU | 5.58 ± .27 log10 PFU | 4.39 ± .36 log10 PFU | 3.546 ± .212 Log10 PFU | 5.268 ± .350 Log10 PFU | 4.48 ± .42 log10 PFU | 5.63 ± .19 log10 PFU | 4.48 ± .17 log10 PFU | 
4 | CN[C@@H](CCCNC(=N)N)C(=O)O [L-NMA, L-N-Methyl Arginine] | 5.71 ± .09 log10 PFU | 5.83 ± .13 log10 PFU | 5.359 ± .225 Log10 PFU and 5.227 ± .208 Log10 PFU | 5.033 ± .238 Log10 PFU and 3.796 ± .084 Log10 PFU | 5.761 ± .151 Log10 PFU | 5.948 ± .089 Log10 PFU | 5.77 ± .21 log10 PFU | 5.76 ± .25 log10 PFU | 5.59 ± .27 log10 PFU | 3.767 ± .208 Log10 PFU | 5.810 ± .131 Log10 PFU | 5.59 ± .26 log10 PFU | 5.85 ± .08 log10 PFU | 5.38 ± .37 log10 PFU | Effect on IFN-γ-induced inhibition of HSV-1 replication (HSV-1): abrogation; Effect on IFN-γ-induced inhibition of VSV replication (VSV [3]): abrogation
5 | CN[C@H](CC(=O)O)C(=O)O [NMDA] |  |  |  |  |  |  |  |  | 3.71 ± .20 log10 PFU |  |  |  |  | 5.54 ± .24 log10 PFU | 
6 | B1 |  |  |  |  |  |  |  |  |  |  |  |  |  |  | MHC-II relative intensity of staining (MHC-II): ++ and + and +++ and −; MHC-I relative intensity of staining (MHC-I): ++ and + and +++ and −; Difference in relative amounts of viral protein between treated and untreated samples (VSV protein): approximately 80%; IL-12 relative intensity of staining (IL-12): + and − and ++; Breakage of the BBB (Evans blue) (blood brain barrier [5]): did not show breakage of the BBB; Difference in relative amounts of viral mRNA between treated and untreated samples (VSV mRNA (N gene)): approximately 20%; Time at which weight exceeded initial measurements [6]: ≤ 12 days after infection; Time at which weight exceeded initial measures [6]: ≤ 12 days after infection; Weight loss recovery from VSV infection [6]: rapidly recover from the weight loss; IFN-R relative intensity of staining (IFN-R): ++ and − and +; VSV relative intensity of staining (VSV [7]): +++ and ++ and + and −; Decrease of VSV titer in brain homogenates (VSV [1]; mouse, in vivo): about 100 fold; Integrity of the BBB (TEM, intercellular junction gaps) (blood brain barrier [8]): not enough to disrupt the integrity of the BBB; Number of survivors versus control medium (VSV [9]): greater; Survival and weight recovery from VSV infection (VSV [9]): not able to rescue; Survival rate from VSV infection versus control mice (VSV [9]): twice the survival rate
7 | B2 |  |  | 3.467 ± .408 Log10 PFU | 3.318 ± .373 Log10 PFU |  |  |  |  |  |  |  |  |  |  | Time to plateau levels of NO2 production [10]: ≤ 24 h; Time to substantial levels of NO2 production [11]: 72 h; HSV-1 replication in NB41A3 cells (HSV-1): significantly inhibited; Replication of Sindbis virus in NB41A3 cells (Sindbis AR339 virus): significantly inhibited; VSV infectious virus in supernatant (VSV [3]): 3.752 ± .034 Log10 PFU; VSV replication in NB41A3 cells (VSV [3]): significantly inhibited; Influenza infectious virus in supernatant (Influenza virus A/WSN/33): 3.810 ± .130 Log10 PFU; Replication of influenza virus A/WSN/33 in NB41A3 cells (Influenza virus A/WSN/33): significantly inhibited; NO production by NB41A3 cells ([12]; IFN-γ treatment): significantly increased; Time to substantial levels of NO2 production ([12]; Neuroblastoma cells, co-culture with IFN-γ): 72 h
